According to ChEMBL document CHEMBL1201862, “PubChem BioAssay data set” (2004):
The source made the active and inactive calls.

Tests used:
[1] = mitochondrial function rescue without frataxin homolog – Friedreich's ataxia, plus single-dose screen, dose response (AID 1465); format: functional;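 also: yeast depleted of Yfh1p frataxin homolog grown on glycerol needing respiration; WST-1 tetrazolium dye reduction as measure of cellular dehydrogenase metabolic activity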
[2] = viability of uninfected HEp-2 cells – cell-based, HTS, cytotoxicity control for RSV inhibitor project, dose response (AID 2410); format: functional; settings: human respiratory syncytial virus
[3] = cells
[4] = molecular target: Large T antigen (Simian virus 40, UniProt P03070); format: functional, Betapolyomavirus macacae;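 also: Confirmatory-stage PubChem screen for compounds that inhibit SV40 T antigen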
Large T antigen, sequence (P03070 whole entry): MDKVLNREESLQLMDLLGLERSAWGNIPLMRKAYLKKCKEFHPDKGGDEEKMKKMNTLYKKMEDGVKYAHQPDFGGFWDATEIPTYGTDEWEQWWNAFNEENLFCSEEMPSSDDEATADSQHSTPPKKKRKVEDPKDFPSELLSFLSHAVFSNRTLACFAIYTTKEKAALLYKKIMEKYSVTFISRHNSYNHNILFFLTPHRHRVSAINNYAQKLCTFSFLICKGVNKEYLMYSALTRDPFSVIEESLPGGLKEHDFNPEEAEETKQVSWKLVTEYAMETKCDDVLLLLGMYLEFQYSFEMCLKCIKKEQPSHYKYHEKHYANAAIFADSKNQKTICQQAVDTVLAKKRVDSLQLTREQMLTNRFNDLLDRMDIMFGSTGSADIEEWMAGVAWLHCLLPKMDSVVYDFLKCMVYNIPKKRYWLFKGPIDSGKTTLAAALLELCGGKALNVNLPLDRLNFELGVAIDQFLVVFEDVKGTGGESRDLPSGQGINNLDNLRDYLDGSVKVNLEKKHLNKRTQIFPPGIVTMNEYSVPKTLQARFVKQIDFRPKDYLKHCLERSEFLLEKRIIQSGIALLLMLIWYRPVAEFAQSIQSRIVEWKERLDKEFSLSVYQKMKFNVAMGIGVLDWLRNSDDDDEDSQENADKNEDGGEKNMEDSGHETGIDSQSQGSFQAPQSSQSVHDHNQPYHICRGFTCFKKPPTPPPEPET

[5] = molecular target: T1, Oxysterols receptor LXR-beta (Homo sapiens, UniProt P55055); format: functional, cell-based
T1 sequence (P55055 whole entry): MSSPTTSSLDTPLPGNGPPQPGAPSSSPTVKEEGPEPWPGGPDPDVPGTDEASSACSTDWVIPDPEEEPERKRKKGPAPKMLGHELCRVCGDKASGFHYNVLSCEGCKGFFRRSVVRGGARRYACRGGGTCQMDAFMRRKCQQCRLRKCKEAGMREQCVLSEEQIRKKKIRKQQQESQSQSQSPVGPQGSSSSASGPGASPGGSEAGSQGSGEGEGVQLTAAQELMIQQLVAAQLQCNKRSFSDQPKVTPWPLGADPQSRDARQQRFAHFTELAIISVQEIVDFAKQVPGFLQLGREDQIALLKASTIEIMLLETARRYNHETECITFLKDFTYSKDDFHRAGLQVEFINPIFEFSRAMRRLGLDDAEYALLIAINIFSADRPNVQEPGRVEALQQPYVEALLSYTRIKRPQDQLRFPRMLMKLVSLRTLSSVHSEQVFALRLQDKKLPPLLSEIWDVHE

[6] = cells; remark: listed apart in the source
[7] = molecular target: T1, Oxysterols receptor LXR-beta; format: functional, cell-based; remark: listed apart in the source
[8] = molecular target: T2, Mannose-6-phosphate isomerase (Homo sapiens, UniProt P34949); test: MPI inhibition at elevated mannose 6-phosphate – biochemical, fluorescence intensity, high mannose 6-phosphate, primary screen (AID 1220)
T2 sequence (P34949 whole entry): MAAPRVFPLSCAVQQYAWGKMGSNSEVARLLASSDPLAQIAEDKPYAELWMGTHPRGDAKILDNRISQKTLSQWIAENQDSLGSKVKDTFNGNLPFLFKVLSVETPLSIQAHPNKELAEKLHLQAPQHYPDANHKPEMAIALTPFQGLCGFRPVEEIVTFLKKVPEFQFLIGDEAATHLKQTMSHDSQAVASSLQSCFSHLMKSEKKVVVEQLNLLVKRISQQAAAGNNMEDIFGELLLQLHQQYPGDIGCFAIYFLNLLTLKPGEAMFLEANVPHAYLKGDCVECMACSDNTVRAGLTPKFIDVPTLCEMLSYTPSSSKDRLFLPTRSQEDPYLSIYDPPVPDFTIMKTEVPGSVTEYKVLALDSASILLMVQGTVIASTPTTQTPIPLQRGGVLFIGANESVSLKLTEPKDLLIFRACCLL

[9] = test system: H9c2; test: cells; format: functional, cell-based; settings: Rattus norvegicus, H9c2, Myocardium;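 also: confirmatory concentration-response retest of ultra-high-throughput screening hits for modulation of myocardial damage; cell death induced by hydrogen peroxide oxidative stress; compound pretreatment for 60 min then peroxide exposure for 2 h; potency is for protecting the cells against peroxide damage rather than for killing them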
[10] = molecular target: T3, Rac GTPase-activating protein 1 (Homo sapiens, UniProt Q9H0H5); test: blockers of MgcRacGAP-driven Rac1 GTP hydrolysis – biochemical, ADP Hunter fluorescence, primary and confirmatory, confirmation (AID 624330); format: functional
T3 sequence (Q9H0H5 whole entry): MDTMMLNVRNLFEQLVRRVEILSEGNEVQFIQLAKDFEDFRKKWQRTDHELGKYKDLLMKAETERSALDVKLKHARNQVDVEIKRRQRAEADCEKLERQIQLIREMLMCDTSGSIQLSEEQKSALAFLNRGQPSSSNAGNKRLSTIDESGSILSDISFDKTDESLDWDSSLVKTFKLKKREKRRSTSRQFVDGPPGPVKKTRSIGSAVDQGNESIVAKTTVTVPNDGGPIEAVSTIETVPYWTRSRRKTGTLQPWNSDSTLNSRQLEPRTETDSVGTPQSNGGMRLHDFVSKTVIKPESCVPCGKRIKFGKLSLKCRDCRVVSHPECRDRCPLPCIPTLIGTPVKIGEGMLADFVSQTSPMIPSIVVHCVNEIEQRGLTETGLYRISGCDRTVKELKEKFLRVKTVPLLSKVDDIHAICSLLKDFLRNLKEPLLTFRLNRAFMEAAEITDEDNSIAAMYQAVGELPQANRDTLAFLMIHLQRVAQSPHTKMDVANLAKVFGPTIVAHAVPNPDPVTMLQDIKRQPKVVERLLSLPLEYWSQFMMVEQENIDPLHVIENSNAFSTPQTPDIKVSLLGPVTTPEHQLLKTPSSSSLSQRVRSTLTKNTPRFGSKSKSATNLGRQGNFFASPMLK

[11] = molecular target: T4, Estrogen receptor (Homo sapiens, UniProt P03372);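 also: potency for inhibiting coactivator peptide recruitment to the receptor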
T4 sequence (P03372 whole entry): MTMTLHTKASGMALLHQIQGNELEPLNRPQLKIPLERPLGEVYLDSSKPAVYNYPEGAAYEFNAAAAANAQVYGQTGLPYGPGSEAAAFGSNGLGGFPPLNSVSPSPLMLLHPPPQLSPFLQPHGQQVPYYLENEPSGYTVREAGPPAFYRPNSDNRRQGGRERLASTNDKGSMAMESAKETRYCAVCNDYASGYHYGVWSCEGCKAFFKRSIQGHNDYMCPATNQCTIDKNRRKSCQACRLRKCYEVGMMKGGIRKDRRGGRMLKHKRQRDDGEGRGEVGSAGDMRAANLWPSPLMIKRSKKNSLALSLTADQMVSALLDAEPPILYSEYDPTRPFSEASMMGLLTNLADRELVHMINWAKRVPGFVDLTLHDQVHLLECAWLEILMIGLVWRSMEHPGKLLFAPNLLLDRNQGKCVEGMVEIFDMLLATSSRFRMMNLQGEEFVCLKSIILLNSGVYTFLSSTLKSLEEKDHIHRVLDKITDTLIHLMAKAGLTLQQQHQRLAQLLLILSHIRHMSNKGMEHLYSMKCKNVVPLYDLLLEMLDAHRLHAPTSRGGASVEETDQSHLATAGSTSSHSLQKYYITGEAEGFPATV

[12] = molecular target: T5, Estrogen receptor beta (Homo sapiens, UniProt Q92731);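 also: recombinant ER-beta bound to coactivator SRC1 peptide in presence of estradiol agonist; inhibitors block coactivator peptide binding and lower the FRET signal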
T5 sequence (Q92731 whole entry): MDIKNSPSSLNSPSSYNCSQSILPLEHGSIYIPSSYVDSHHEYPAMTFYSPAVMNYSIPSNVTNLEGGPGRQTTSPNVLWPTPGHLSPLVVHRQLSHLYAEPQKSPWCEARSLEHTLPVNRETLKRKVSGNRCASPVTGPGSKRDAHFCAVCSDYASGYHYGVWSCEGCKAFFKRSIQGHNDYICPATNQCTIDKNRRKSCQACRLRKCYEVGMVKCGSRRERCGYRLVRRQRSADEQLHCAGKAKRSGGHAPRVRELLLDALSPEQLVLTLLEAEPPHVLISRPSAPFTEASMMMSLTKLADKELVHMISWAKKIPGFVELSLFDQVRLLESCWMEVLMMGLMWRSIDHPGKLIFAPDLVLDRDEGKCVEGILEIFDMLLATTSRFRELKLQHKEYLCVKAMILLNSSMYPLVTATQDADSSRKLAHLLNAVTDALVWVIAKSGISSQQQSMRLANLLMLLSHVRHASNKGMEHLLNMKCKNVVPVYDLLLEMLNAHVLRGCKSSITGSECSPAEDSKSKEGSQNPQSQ

[13] = molecular target: T5, Estrogen receptor beta; test: blockers of SRC-3 recruitment to ERβ – biochemical, ELISA, streptavidin-HRP readout, orthogonal assay, confirmation (AID 1060)
[14] = cytotoxicity in MITF-independent A375 cells – cell-based, CellTiter-Glo luminescence, dry powder, set 4, counter-screen for MITF inhibitor project, dose response (AID 624364); format: functional; settings: A-375;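 also: A375 melanoma cells are MITF independent so this is a counter screen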
[15] = viability loss in MITF-independent A375 cells – cell-based, CellTiter-Glo luminescence, dry powder, set 2, counter-screen for MITF inhibitor project, dose response (AID 624489); format: functional; settings: A-375;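 also: actives are compounds lowering A375 viability meaning general cytotoxicity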
[16] = viability loss in HEK293 cells – cell-based, plate reader, cherry-picked samples, cytotoxicity control, dose response (AID 743446); format: functional
[17] = blockade of melanocortin 4 receptor signaling – cell-based, plate reader, cherry pick, counter-screen for LGR2 antagonist project, dose response (AID 743444); format: functional;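 also: transfected HEK 293 cells stimulated with alpha-MSH peptide; potency of inhibitors of the alpha-MSH evoked signal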
[18] = blockers of bursicon-stimulated LGR2 cAMP reporter – cell-based, HEK293, CRE-luciferase reporter, cherry pick, set 2, dose response (AID 743343); format: functional;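 also: transfected cells were stimulated with diluted bursicon conditioned medium after compound addition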
[19] = toxicity toward HepG2 liver cells – cell-based, plate reader, cherry-pick, antagonist series, cytotoxicity control, dose response (AID 743416); format: functional
[20] = A549 cell cytotoxicity, dose response, cytotoxicity control, plate reader, cherry-pick, antagonist series (AID 743412); format: functional, cell-based
[21] = viability of HCT116 lacking mutant beta-catenin – cell-based, human colon tumor, dose response (AID 1045); format: functional;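 also: HCT116 colon tumor cells with beta catenin knocked out; cells exposed to compound for 60 hours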
[22] = viability of PTEN-deleted HCT116 cells – cell-based, HCT116 PTEN knockout, dose response (AID 1047); format: functional;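 also: HCT116 colon tumor cells with PTEN knocked out; cells exposed to compound for 60 hours before readout; potency for loss of cell viability measured by luminescence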
[23] = molecular target: T1, Oxysterols receptor LXR-beta; test: LXR agonists, Gal4 luciferase reporter, dose response, counter-screen for ssDAF-12 agonist project, cell-based, luminescence, HEK293, S. stercoralis campaign (AID 720737); format: functional; settings: read-out: IC50 (the source's name)
[24] = Luminescence-based cell-based high throughput dose response assay to identify activators of the DAF-12 from the parasite S. stercoralis (ssDAF-12).; format: functional
[25] = Reduced DLD-1 viability, concentration-response, CellTiter-Glo luminescence (AID 1117352); format: functional
[26] = cytotoxicity toward HCT116 cells – cell-based, CellTiter-Glo luminescence, IC50, dose response (AID 1117332); format: functional; settings: HCT-116
[27] = CellTiter-Glo luminescence survival assay, SW480 colon tumor line, concentration-response curve, half-maximal inhibitory concentration (AID 1117338); format: functional
[28] = cytotoxicity toward Colo320 cells – cell-based, CellTiter-Glo luminescence, IC50, dose response (AID 1117334); format: functional; settings: COLO 320

With `CN(CCO)c1cc(N2CCC3(CC2)OCCO3)c2nonc2c1[N+](=O)[O-]` as the compound, how does the EC50 [1] read?
The EC50 was > 100 µM (active).

For `N#C/C(=C/c1ccc(N2CCOCC2)o1)C(=O)N1CCOCC1`, which EC50 [1] is on record?
The EC50 was > 100 µM (active).

Which results are given for `CCOC(=O)c1sc(NC(=O)Cn2nnc3sc4c(c3c2=O)CCC(C(C)(C)C)C4)nc1C` (stereo not given)?
CC50 [2]: 23.7 µM (active); IC50 [3]: > 25 µM (active)

With `CN(C)c1ccc(Nc2nc(-c3cccnc3)cs2)cc1` as the compound, how does the IC50 [4] read?
Its IC50 is 8.54 µM (active).

And the EC50 [5]?
The EC50 was > 67.5 µM (inactive).

What does the source list for `Cc1ccccc1N=Nc1c(O)[nH]c2ccccc12`?
EC50 [6]: > 67.5 µM (inactive); EC50 [7]: > 67.5 µM (inactive)

With `Oc1ccc(Cl)cc1/C=N/c1ccc2c3c(cccc13)CC2` as the compound, how does the IC50 [8] read?
Its IC50 is > 50 µM (not active).

What about the IC50 [9] of the same compound?
The IC50 was 9.38 µM (active).

And the IC50 [10]?
The IC50 was 12.9 µM (active).

For `O=S(=O)(Nc1nccs1)c1cc(Cl)ccc1Cl`, which IC50 [11] is on record?
The IC50 was > 50 µM (not active).

What about the IC50 [12] of the same compound?
Its IC50 is > 50 µM (not active).

What about the IC50 [13] of the same compound?
Its IC50 is 78.6 µM (not active).

With `CCN1CCN(C2=C(Nc3ccccc3)C(=O)c3ccccc3C2=O)CC1` as the compound, how does the AC50 [14] read?
Its AC50 is 46.6 µM (active).

What about the AC50 [15] of the same compound?
The AC50 was 25.5 µM (active).

With `C[C@H]1CN([C@@H](C)CO)C(=O)Cc2cc(NS(=O)(=O)c3ccc(Cl)cc3)ccc2O[C@@H]1CN(C)Cc1ccc(Cl)c(Cl)c1` as the compound, how does the AC50 [16] read?
Its AC50 is 19.6 µM (active).

And the AC50 [17]?
The AC50 was 12.7 µM (active).

And the AC50 [18]?
The AC50 was 20.4 µM (active).

What about the AC50 [19] of the same compound?
The AC50 was 11.3 µM (active).

What about the AC50 [20] of the same compound?
Its AC50 is 10.2 µM (active).

What does the source list for `O=C(NC1=C(N2CCOCC2)C(=O)c2ccccc2C1=O)c1ccc(Br)cc1`?
AC50 [14]: > 70 µM (inactive); AC50 [15]: 28.9 µM (active)

Which EC50 [6] does the source give for `Fc1cccc(Cl)c1/C=N/Nc1ccccn1` here?
Its EC50 is > 67.6 µM (inactive).

What about the EC50 [7] of the same compound?
Its EC50 is > 67.6 µM (inactive).

With `CC/C(=N/Nc1ccccc1)c1cnnc(-c2ccccc2)n1` as the compound, how does the IC50 [12] read?
The IC50 was > 50 µM (not active).

And the IC50 [13]?
Its IC50 is 6.12 µM (not active).

And the EC50 [21]?
The EC50 was 70.6 µM (active).

What about the EC50 [22] of the same compound?
The EC50 was 60.2 µM (active).

With `O=C(Nc1ccccc1)C(=O)c1c[nH]c2ccccc12` as the compound, how does the EC50 [23] read?
Its EC50 is > 67.5 µM (inactive).

What about the IC50 [24] of the same compound?
The IC50 was > 67.5 µM (inactive).

Which IC50 [25] does the source give for `c1cnc2cc3c(cc2n1)[C@@H]1CNC[C@H]3C1` [VARENICLINE] here?
The IC50 was > 6.67 µM (inactive).

What about the IC50 [26] of the same compound?
Its IC50 is > 20 µM (inactive).

What about the IC50 [27] of the same compound?
The IC50 was > 6.67 µM (inactive).

What about the IC50 [28] of the same compound?
The IC50 was > 20 µM (inactive).
